Values of other authors, collected in patent US9339471B2, “Long acting dual release product containing carbinoxamine and pseudoephedrine” (E5 PHARMA, LLC, priority 2007, dated 2016).

Settings: dependent on urine pH; cited from earlier work

In the case of `CN[C@@H](C)[C@@H](O)c1ccccc1.Cl` (relative stereo) [Pseudoephedrine, [S—(R*,R*)]-α-[1-(methylamino)ethyl]-benzenemethanol hydrochloride], the mean elimination half-life is given as 4 to 6 h.
